Measured values taken from patent publication US20260242440A1, “NOVEL MEANS TO MODULATE NMDA RECEPTOR-MEDIATED TOXICITY” (FUNDAMENTAL PHARMA GMBH, priority 2018, published 2026).
Entries after “also recorded” stand apart in the source; their conditions may differ.

How the values were obtained:
HEK293 cells = experiment: Luminescent cytotoxicity assay, HEK293 cells transfected with GRIN1 and GRIN2A or GRIN2B; assay type: cell-based, human; conditions: compound added 6 h after transfection; cell death 48 h after transfection
Description: HEK293 cells were cultured in Dulbecco's Modified Eagle Medium (DMEM, Gibco™ 41965-039) supplement with 10% Fetal Bovine Serum (FBS, Gibco™, 10270), 1% Sodium Pyruvate (Gibco™, 11360070), 1% MEM NEAA (GibcoT^M, 11140035) and 0.5% Penicillin-Streptomycin (P-S; Sigma, P0781) and Passagel5-25 were used for experiments.
To test the cytotoxicity of compounds according to the present invention, HEK293 cells (70-80% confluent) were transfected 24 hours after plating with both GRIN1 and GRIN2 Å or GRIN2B, respectively (1:[…]) with Lipofectamine 2000 according to manufacturer's instructions. The relative number of dead cells in the population at the indicated time points after transfection was measured with the CytoTox-Glo™ Cytotoxicity assay (Promega, G9290) according to manufacturer's instruction with minor modification. Briefly, 10% of total medium were mixed with 10 μL AAF-amino luciferin to reach a final volume at 200 μL with water, the dead cell relative luminescence units (DRLU) was measured by GloMax (Promega) in a 96 well white bottom polystyrene microplate (Corning Costar®, 3912). After all the measurements, lysis reagents have been added to the cells and 10% of lysate was used for the total cell relative luminescence units (TRLU) measurement. Cell death was calculated by the following equations: […]
For drug testing, P4, P8, P9, P13 and P15 were added to the medium at indicated concentration 6 h after transfection. DRLU, TRLU and cell death were measured and calculated 48 h after transfection.

[1] = tested on: primary mouse hippocampal neurons; experiment: NMDA receptor induced mitochondrial membrane potential breakdown (Rh123 imaging); assay type: cell-based
Description: Coverslips with primary cultured neurons (DIV15-DIV17) were used to examine mitochondrial membrane potential (Ψm) and mitochondrial calcium signalling, which was performed at room temperature in CO2-independent culture medium (CICM) containing: 10 mM HEPES, 140 mM NaCl, 2.5 mM KCl, 1.0 mM MgCl2, 2.0 mM CaCl2, 1.0 mM Glycine, 35.6 mM Glucose and 0.5 mM Na-pyruvate. All images were obtained by a cooled-CCD camera (iXon 887, Andor) on an upright microscope (BX51WI, Olympus). Fluorescence excitation was provided by a xenon arc lamp in combination with an excitation filter wheel (MT-20, Olympus). Data were collected using Cell^R software (Olympus), analysed using ImageJ and quantified using Igor Pro (WaveMetrics). Ψm was detected with the small molecule fluorescence indicator Rhodamine 123 (Rh123; Molecular Probe™, R302). Primary cultured neurons were loaded with 4.3 μM Rh123 in CICM at 37° C. for 30 min, then washed and left in CICM for another 30 min before recording. At the end of each experiment, the mitochondrial uncoupler FCCP (5 μM, Sigma-Aldrich, Cat #C2920) was applied to the cells to reach the maximal Rh123 fluorescence intensity. Rh123 was imaged with 470±20 nm excitation and 525±25 nm emission wavelengths using a 20× objective. Rh123 fluorescence intensity was measured in the nucleus to minimize contamination from cytosolic mitochondrial signal and Rh123 fluorescence intensity was normalized to the maximum FCCP signal for each region of interest.
Mitochondrial dysfunction is a hallmark of NMDA receptor excitotoxicity and an early event en-route to neuronal death. A parameter that is often used to assess mitochondrial integrity is the mitochondrial membrane potential. A breakdown of the mitochondrial membrane potential can be observed after exposure of hippocampal or cortical neurons to NMDA and indicates excitotoxicity-associated mitochondrial dysfunction. Therefore, the inventors investigated the effect of polypeptides comprising the sequence of SEQ ID NO:5 or SEQ ID NO: 54 as well as of the control TRMP5 sequence (SEQ ID NO: 55) on mitochondrial membrane potential break down in primary mouse hippocampal neurons. Excitotoxicity leading to mitochondrial membrane potential break down was induced with bath application of 20 μM NMDA. After 11 minutes, the mitochondrial uncoupler, carbonylcyanide-p-trifluoromethoxyphenylhydrazone (FCCP) was added. Addition of FCCP leads to break-down of the mitochondrial membrane potential and served as a control of the test system.

NMDA receptor = experiment: NMDA-induced calcium transients (Fura2 calcium imaging); assay type: cell-based, mouse; conditions: hippocampal neurons, 6 min NMDA (20 μM) application
Description: In a further experiment, the impact of P4 and P15 on NMDA-induced calcium transients was assessed. Briefly, for calcium imaging, primary hippocampal neurons on coverslips were loaded with the cell-permeable, high-affinity ratiometric calcium indicator Fura2-AM (Invitrogen™ F1221), at 1 μM in CO2-independent culture medium (CICM; CICM contains: 10 mM HEPES, 140 mM NaCl, 2.5 mM KCl, 1.0 mM MgCl2, 2.0 mM CaCl2, 1.0 mM Glycine, 35.6 mM Glucose and 0.5 mM Na-pyruvate) for 30 min at 37° C., then washed and left in CICM for another 30 min to allow for de-esterification. Fura2 was excited at 340/11 nm and 380/11 nm, and fluorescence emission was obtained from a 40× UV compatible objective (LUMPLFLN, Olympus) through a 510/20 nm emission filter. For quantification, ImageJ was used to calculate average background-subtracted fluorescence intensities for 340 and 380 nm excitation (F340 and F380) from each neuron. Intracellular calcium levels were plotted as F340/F380 ratios over time, from which the NMDA response amplitude and area under the curve (AUC) was calculated to quantify NMDA-induced calcium influx.

TRPM4 channel = molecular target: T1, TRPM4 channel (Homo sapiens, UniProt Q8TD43); experiment: TRPM4 channel function, whole-cell patch clamp in PC3 cells; assay type: cell-based; conditions: 10 μM compound, pre-incubated 30-60 min
T1 construct: PC3 cells are known to express TRPM4 channels; endogenous in cells; host or cells: PC3 prostate cancer cell line
Text: To assess any direct impact of compound P4 and compound P15 on TRPM4 channel function independent of NMDA receptors, the inventors used the prostate cancer cell line PC3 and patch clamp recordings. PC3 cells are known to express TRPM4 channels (C. Holzmann et al., Oncotarget. 6, 41783-93 (2015)). TRPM4 currents in turn are characterized by their calcium dependence and outward rectification (P. Launay et al., Cell. 109, 397-407 (2002)). Briefly, whole-cell patch clamp recordings were made from PC3 cells plated on 12 mm round coverslips secured with a platinum ring in a recording chamber (OAC-1, Science Products GmbH) mounted on a fixed-stage upright microscope (BX51WI, Olympus). […] Patch electrodes (3-4 MΩ) were made from 1.5 mm borosilicate glass and filled with cesium-based solutions (in mM: CsCl, 145; NaCl, 8; HEPES, 10; MgCl2, 1; plus either EGTA, 0.2 for a free Ca^2+ concentration of zero; or EGTA, 10 and CaCl2), 9.4 for a calculated free Ca^2+ concentration of 10 μM; Maxchelator, Stanford University). Recordings were made with a Multiclamp 700B amplifier, digitized through a Digidata 1550B and acquired and analyzed using pClamp 10 software (Molecular Devices). Access resistance (range: 10-20 MΩ) was monitored regularly during voltage clamp recordings and data was rejected if changes greater than 20% occurred.

[2] = tested on: primary mouse hippocampal neurons; experiment: NMDA induced cell death (excitotoxicity) in cultured primary neurons; assay type: cell-based; conditions: polypeptide expressed via rAAV infection on DIV3; NMDA 20 μM for 10 min; cell death assessed 24 h later
Description: Primary mouse hippocampal and cortical neurons were prepared and maintained as known. Briefly, hippocampi or cerebral cortex from P0 C57Bl/6NCrl mice were dissociated and plated at a density of 1.2*105/cm^2 in Growth Medium (GM), consisting of Neurobasal A medium (Gibco™, 10888022), 2% serum free B27™ Supplement (Gibco™, 17504044), 1% rat serum (Biowest, S2150), 0.5 mM L-Glutamine (Sigma, G7513) and 0.5% P-S. Cytosine β-D-arabinofuranoside (AraC; Sigma, C1768; 2.8 μM) was added on DIV3 to prevent the proliferation of glial cells. From DIV8, half of the medium was replaced by GM without Rat serum every 48 h until being used for experiments. 24 h before experiments, GM was replaced with transfection medium (10 mM HEPES, pH 7.4, 114 mM NaCl, 26.1 mM NaHCO3, 5.3 mM KCl, 1 mM MgCl2, 2 mM CaCl2, 30 mM glucose, 1 mM glycine, 0.5 mM C3H3NaO3, and 0.001% phenol red and 10% of phosphate-free Eagle's minimum essential medium, supplemented with 7.5 µg/ml insulin, 7.5 µg/ml transferrin and 7.5 ng/ml sodium selenite (ITS Liquid Media Supplement, Sigma-Aldrich Cat #I3146)). Primary hippocampal neurons were used in live cell imaging, cell death experiments, while cortical neurons were used for mRNA and protein extraction analysis.
All viral particles were produced and purified as known in the art. All TRPM4 derived peptides (comprising SEQ ID NO:5, or any of SEQ ID NO:46 to SEQ ID NO:56) were cloned into rAAV backbone by PCR. shRNA against mouse TRPM4 were designed by BLOCK-iT™ RNAi Designer from Thermofisher to target: […] (SEQ ID NO:44, shTRPM4-1) and […] (SEQ ID NO:45, shTRPM4-2). Scramble shRNA (shSCR) has been tested and proven to have no known targets in mice. GPI anchor ([…], e.g. used in SEQ ID NO:53) sequences were synthesized by Eurofins Genomics (Ebersberg, Germany). All primers were synthesized and all plasmids were confirmed by sequencing by Eurofins Genomics.
In order to investigate the role of TRPM4 in NMDA receptor mediated excitotoxicity, the inventors used RNA interference strategies to knock down TRPM4. Cultured primary mouse hippocampus neurons were infected on day 3 in vitro (DIV3) with recombinant adeno-associated viruses (rAAVs) providing for expression of a scramble control (shSCR), shTRPM4-1 (SEQ ID NO:44) or shTRPM4-2 (SEQ ID NO:45). On DIV15-16, neurons were challenged with N-methyl-D-aspartate (NMDA, 20 μM) for 10 min. After NMDA wash out, neurons were kept in the culture medium for another 24 h before analysis. […] Evidently, TRPM4 is thus involved in the process of NMDA receptor mediated excitotoxicity.
In a next step, the inventors tried to identify regions in the mouse TRPM4 protein potentially involved in NMDA receptor mediated excitotoxicity. For this purpose, polypeptide fragments of mouse TRPM4 protein were generated and their impact on NMDA induced excitotoxicity analysed. To do so, primary neuron cultures were infected with respective rAAVs on DIV3, challenged with NMDA (20 μM) for 10 min on DIV17 and cell death assessed 24 hours later.
The sequence of SEQ ID NO:5 in TRPM4 is located in vivo just beneath the plasma membrane. […] To test this hypothesis, the inventors created a fusion protein comprising SEQ ID NO:5 and a GPI anchor, SEQ ID NO:57. The sequence of the fusion is given in SEQ ID NO:53. Neurons infected with rAAV and expressing SEQ ID NO:47 (control) or SEQ ID NO:53 were exposed to NMDA (20 μM) for 10 min on DIV15-16, with cell death assessed after 24 h.
In a next step, the inventors created a mutant of SEQ ID NO:5, in which two adjacent phenylalanine residues where substituted by tyrosine residues (SEQ ID NO: 54). […] TRPM5 is a protein related to but nonetheless distinct to TRPM4. The region in TRPM5 corresponding to SEQ ID NO:5, SEQ ID NO:55, shares only about 60% sequence identity with SEQ ID NO:5. Neurons were infected on DIV3 with rAAVs expressing SEQ ID NO: 5, SEQ ID NO: 54 or SEQ ID NO:55 and exposed to NMDA (20 μM) for 10 min on DIV17, with cell death assessed 24 h later. […]

synaptic NMDA receptor = experiment: Gabazine induced calcium influx into mitochondria (synaptic NMDA receptor signalling); assay type: cell-based, mouse; conditions: primary cultured neurons, polypeptides expressed via rAAV
Description: Gabazine induced mitochondrial Ca^2+ response in primary cultured neurons is recorded and analysed as described in a previous study (Qiu et al, Nat Commun. 2013; 4:2034, incorporated herewith by reference) using a FRET calcium indicator 4mtD3cpv that specifically located to mitochondria. Briefly, mitochondrial Ca^2+ levels were detected with FRET-based and mitochondrial targeted Ca^2+ indicator 4mtD3cpv. 4mtD3cpv were excited at 430±12 nm (CFP) and 500±10 nm (YFP), and emission of CFP (470±12 nm) and YFP (535±15 nm) were separated and filtered using a DualView beam splitter (AHF Analysentechnik and MAG Biosystems), and all fluorescence images were recorded through a 20× water-immersion objective at 1 Hz.
In a further experiment the inventors assessed the impact of the polypeptide comprising the sequence of SEQ ID NO:5 and SEQ ID NO: 54, respectively, on Gabazine induced calcium influx (mitochondria), a measure of synaptic NMDA receptor signalling. The experiment was carried out in primary cultured neurons as described above.

T1 sequence (Q8TD43 whole entry): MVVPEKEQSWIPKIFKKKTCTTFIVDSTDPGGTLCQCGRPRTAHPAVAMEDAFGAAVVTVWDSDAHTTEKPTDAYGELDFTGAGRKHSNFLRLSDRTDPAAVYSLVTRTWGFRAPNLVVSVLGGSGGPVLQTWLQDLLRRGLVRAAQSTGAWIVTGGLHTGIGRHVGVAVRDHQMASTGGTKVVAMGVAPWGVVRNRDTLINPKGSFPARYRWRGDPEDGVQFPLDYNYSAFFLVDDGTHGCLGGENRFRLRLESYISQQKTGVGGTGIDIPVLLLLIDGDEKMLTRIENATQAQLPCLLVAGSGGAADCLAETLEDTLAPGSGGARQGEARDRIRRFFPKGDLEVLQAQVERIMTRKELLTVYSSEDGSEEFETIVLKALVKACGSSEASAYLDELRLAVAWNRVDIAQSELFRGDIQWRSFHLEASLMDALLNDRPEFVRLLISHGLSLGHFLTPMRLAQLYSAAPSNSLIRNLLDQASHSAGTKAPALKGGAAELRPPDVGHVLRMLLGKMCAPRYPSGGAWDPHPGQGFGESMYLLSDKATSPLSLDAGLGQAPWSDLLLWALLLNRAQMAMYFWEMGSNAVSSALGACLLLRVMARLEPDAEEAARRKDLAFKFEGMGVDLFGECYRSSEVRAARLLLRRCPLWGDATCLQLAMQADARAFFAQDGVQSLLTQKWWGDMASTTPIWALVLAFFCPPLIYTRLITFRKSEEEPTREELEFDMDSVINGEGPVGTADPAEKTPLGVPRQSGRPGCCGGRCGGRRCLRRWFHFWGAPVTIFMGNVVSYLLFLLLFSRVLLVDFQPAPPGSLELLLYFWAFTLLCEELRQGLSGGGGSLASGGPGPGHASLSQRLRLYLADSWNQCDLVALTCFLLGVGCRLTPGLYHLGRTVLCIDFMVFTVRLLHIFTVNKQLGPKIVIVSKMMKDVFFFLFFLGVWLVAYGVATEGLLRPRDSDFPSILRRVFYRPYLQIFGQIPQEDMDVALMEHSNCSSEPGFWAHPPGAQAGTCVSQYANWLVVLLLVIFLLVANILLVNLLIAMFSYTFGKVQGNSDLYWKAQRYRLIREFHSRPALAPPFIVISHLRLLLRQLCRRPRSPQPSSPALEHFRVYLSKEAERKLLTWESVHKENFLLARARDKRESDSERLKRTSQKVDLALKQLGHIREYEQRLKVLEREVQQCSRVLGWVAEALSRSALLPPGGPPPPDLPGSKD

Molecule	NMDA receptor induced cell death (HEK293 cells)	protection of mitochondrial membrane potential from NMDA excitotoxicity ([1]; compound applied 30 min prior to recording, bath application of NMDA)	NMDA-induced calcium transients (NMDA receptor)	TRPM4-like outwardly rectifying current activated by 10 μM Ca2+ (TRPM4 channel)	protection against NMDA induced cell death (neuroprotective effect) [2]	Gabazine induced calcium influx into mitochondria (synaptic NMDA receptor)	NMDA receptor induced mitochondrial membrane potential breakdown ([1]; polypeptides expressed via rAAV, bath application of 20 μM NMDA)
NCC1CCN(CC(=O)Nc2cc(Cl)c(Cl)cc2Cl)C1 (stereo not shown) [P15]	reduced the level of NMDA receptor induced cell death	significantly protect mitochondrial membrane potential from NMDA excitotoxicity	neither compound P4 nor compound P15 reduced; also recorded: neither compound P4 nor P15 reduced	not affected	–	–	–
SEQ ID NO:54: derivative of SEQ ID NO:5, having a conservative substitution of two Y for two F (NSEERAARLLLRRCPLWGEATCLQLAMQADARAYYAQDGVQSLLTQKWWGEMDSTTP; Mutant of SEQ ID NO:5 with F34Y and F35Y)	–	–	–	–	only slightly less effective in reducing NMDA receptor-mediated cell toxicity than SEQ ID NO:5	neither of these polypeptides affects synaptic NMDA receptor signalling; also recorded: not affected	capable of preventing NMDA receptor induced mitochondrial membrane potential breakdown
